Assay results: patent US20250129078A1, “ERBB2 INHIBITORS” (Cogent Biosciences, Inc., priority 2023, published 2025)

Tests used:
ErbB2 V777L = ErbB2 V777L (Homo sapiens (Human), UniProt P04626, V777L); experiment: ErbB enzyme assay (CisBio HTRF-KinEASE-TK), ErbB2 V777L; assay type: biochemical
In short: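 HTRF KinEASE-TK tyrosine-kinase read-out of substrate phosphorylation after a final 1 h at ambient temperature, from the 655/620 nm emission ratio.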

EGFR WT = EGFR WT (Homo sapiens (Human), UniProt P00533); experiment: ErbB enzyme assay (CisBio HTRF-KinEASE-TK), EGFR WT; assay type: biochemical; conditions: ATP at Km (25 μM), 1 h incubation
EGFR WT, sequence (P00533 25-1210): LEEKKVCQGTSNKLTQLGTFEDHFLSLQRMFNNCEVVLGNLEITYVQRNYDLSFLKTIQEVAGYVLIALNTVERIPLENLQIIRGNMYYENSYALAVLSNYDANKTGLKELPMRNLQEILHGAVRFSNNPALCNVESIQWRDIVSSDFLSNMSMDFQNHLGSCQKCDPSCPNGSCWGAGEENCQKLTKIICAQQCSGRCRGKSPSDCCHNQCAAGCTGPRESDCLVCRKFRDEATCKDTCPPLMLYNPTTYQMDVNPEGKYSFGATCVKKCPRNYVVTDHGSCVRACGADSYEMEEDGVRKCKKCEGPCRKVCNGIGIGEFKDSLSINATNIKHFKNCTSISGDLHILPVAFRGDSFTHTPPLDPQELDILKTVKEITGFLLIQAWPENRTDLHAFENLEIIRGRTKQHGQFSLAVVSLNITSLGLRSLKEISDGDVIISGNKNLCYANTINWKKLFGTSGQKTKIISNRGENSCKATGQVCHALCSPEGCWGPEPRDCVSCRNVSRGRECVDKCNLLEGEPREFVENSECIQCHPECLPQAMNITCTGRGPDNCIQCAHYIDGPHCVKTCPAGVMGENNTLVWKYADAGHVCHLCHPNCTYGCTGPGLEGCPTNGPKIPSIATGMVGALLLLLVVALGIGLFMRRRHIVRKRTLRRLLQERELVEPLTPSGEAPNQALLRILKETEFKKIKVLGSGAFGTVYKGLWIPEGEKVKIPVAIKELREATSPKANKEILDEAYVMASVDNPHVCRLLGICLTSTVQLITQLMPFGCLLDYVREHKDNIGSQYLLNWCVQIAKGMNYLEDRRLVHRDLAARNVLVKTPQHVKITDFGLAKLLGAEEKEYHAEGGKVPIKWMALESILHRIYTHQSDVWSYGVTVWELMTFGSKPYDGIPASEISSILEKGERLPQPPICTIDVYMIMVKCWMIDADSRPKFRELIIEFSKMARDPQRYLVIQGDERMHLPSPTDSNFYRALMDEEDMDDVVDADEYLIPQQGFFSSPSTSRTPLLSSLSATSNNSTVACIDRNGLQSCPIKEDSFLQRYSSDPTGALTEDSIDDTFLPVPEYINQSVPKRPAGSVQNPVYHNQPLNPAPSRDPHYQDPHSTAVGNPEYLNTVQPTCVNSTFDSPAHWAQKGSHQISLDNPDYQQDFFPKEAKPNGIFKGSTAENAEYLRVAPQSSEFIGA
In short: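 HTRF KinEASE-TK kinase reactions ran 1 h at ambient temperature with three-fold serial compound dilutions, then were quenched with Sa-XL665 and TK-Ab-Cryptate. After 1 h more, 655/620 nm time-resolved fluorescence gave percent of control; a 4-parameter logistic fit defined IC50 at 50 POC.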

ErbB2 V777L, sequence (P04626 23-1255 V777L): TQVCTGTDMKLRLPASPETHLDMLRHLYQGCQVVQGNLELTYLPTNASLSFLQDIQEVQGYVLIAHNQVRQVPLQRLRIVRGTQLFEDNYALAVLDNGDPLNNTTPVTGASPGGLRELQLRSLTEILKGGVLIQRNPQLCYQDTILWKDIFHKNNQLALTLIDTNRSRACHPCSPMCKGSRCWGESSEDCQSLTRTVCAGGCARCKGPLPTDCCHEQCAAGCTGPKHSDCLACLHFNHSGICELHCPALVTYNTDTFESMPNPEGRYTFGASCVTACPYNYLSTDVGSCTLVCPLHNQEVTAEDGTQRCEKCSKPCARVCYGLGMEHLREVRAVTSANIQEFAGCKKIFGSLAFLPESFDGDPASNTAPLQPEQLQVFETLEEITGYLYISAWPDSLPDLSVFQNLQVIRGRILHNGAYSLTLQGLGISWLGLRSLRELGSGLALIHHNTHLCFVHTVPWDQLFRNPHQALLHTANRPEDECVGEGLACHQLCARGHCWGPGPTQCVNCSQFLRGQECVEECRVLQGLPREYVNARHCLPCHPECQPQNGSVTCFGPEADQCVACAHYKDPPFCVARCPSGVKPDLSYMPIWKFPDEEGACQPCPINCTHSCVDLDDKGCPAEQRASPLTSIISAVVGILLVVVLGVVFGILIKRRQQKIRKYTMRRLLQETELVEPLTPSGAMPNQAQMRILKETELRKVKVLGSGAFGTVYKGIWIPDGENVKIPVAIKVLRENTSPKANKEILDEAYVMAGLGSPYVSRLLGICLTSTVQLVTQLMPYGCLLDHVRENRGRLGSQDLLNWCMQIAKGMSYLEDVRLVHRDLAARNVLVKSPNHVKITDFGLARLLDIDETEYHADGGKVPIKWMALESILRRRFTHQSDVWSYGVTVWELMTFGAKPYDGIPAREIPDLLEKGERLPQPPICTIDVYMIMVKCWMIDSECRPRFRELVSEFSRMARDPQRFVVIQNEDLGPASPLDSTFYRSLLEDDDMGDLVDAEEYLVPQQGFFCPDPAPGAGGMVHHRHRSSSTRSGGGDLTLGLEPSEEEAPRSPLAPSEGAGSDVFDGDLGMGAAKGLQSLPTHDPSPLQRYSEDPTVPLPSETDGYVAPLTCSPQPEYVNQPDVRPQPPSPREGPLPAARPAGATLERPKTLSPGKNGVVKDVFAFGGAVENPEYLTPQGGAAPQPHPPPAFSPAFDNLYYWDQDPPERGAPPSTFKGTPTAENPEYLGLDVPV

IC50 (ErbB2 V777L) [nM] | IC50 (EGFR WT) [nM] | Compound
100 to 500 | 100 to 500 | C=CC(=O)N1CCC(c2ccc3ncnc(Nc4ccc(Oc5ccc6c(c5)nnn6C)c(C)c4)c3n2)CC1 [Compound 108, 1-(4-(4-((3-methyl-4-((1-methyl-1H-benzo[d][1,2,3]triazol-5-yl)oxy)phenyl)amino)pyrido[3,2-d]pyrimidin-6-yl)piperidin-1-yl)prop-2-en-1-one]
50 to 100 | < 50 | C=CC(=O)N1CCCN(c2ncc3ncnc(Nc4ccc(Oc5cc(F)c6c(c5)ncn6C)c(C)c4F)c3n2)CC1 [Compound 112, 1-(4-(8-((2-fluoro-4-((7-fluoro-1-methyl-1H-benzo[d]imidazol-5-yl)oxy)-3-methylphenyl)amino)pyrimido[5,4-d]pyrimidin-2-yl)-1,4-diazepan-1-yl)prop-2-en-1-one]
100 to 500 | 100 to 500 | C=CC(=O)N1CCN(c2ncc3ncnc(Nc4ccc(Oc5ccc6c(c5)nnn6C)c(CC)c4)c3n2)CC1 [Compound 114, 1-(4-(8-((3-ethyl-4-((1-methyl-1H-benzo[d][1,2,3]triazol-5-yl)oxy)phenyl)amino)pyrimido[5,4-d]pyrimidin-2-yl)piperazin-1-yl)prop-2-en-1-one]
500 to 1000 | ≥ 1000 | C=CC(=O)N1CCN(c2ncc3ncnc(Nc4ccc(Oc5ccc6c(c5)nnn6C)c(C)c4)c3n2)C[C@@H]1CC [Compound 115, (S)-1-(2-ethyl-4-(8-((3-methyl-4-((1-methyl-1H-benzo[d][1,2,3]triazol-5-yl)oxy)phenyl)amino)pyrimido[5,4-d]pyrimidin-2-yl)piperazin-1-yl)prop-2-en-1-one]
100 to 500 | ≥ 1000 | C=CC(=O)N1CCN(c2ncc3ncnc(Nc4ccc(Oc5ccc6c(c5)nnn6C)c(C)c4)c3n2)C[C@@H]1C1CC1 [Compound 117, (S)-1-(2-cyclopropyl-4-(8-((3-methyl-4-((1-methyl-1H-benzo[d][1,2,3]triazol-5-yl)oxy)phenyl)amino)pyrimido[5,4-d]pyrimidin-2-yl)piperazin-1-yl)prop-2-en-1-one]
100 to 500 | 500 to 1000 | C=CC(=O)N1CCN(c2ncc3ncnc(Nc4ccc(Oc5ccc6c(c5)nnn6C)c(C)c4)c3n2)C[C@H]1CC [Compound 119, (R)-1-(2-ethyl-4-(8-((3-methyl-4-((1-methyl-1H-benzo[d][1,2,3]triazol-5-yl)oxy)phenyl)amino)pyrimido[5,4-d]pyrimidin-2-y1)piperazin-1-yl)prop-2-en-1-one]
100 to 500 | 100 to 500 | C=CC(=O)NC1CCN(c2ncc3ncnc(Nc4ccc(Oc5ccc6c(c5)nnn6C)c(C)c4)c3n2)CC1 [Compound 123, N-(1-(8-((3-methyl-4-((1-methyl-1H-benzo[d][1,2,3]triazol-5-yl)oxy)phenyl)amino)pyrimido[5,4-d]pyrimidin-2-yl)piperidin-4-yl)acrylamide]
50 to 100 | 100 to 500 | C=CC(=O)N1CC2(CC(N(C)c3ncc4ncnc(Nc5ccc(Oc6ccc7c(c6)nnn7C)c(C)c5)c4n3)C2)C1 [Compound 124, 1-(6-(methyl(8-((3-methyl-4-((1-methyl-1H-benzo[d][1,2,3]triazol-5-yl)oxy)phenyl)amino)pyrimido [5,4-d]pyrimidin-2-yl)amino)-2-azaspiro[3.3]heptan-2-yl)prop-2-en-1-one]
100 to 500 | 500 to 1000 | C=CC(=O)N(C)[C@H]1CCCN(c2ncc3ncnc(Nc4ccc(Oc5ccc6c(c5)nnn6C)c(C)c4)c3n2)C1 [Compound 127, (S)-N-methyl-N-(1-(8-((3-methyl-4-((1-methyl-1H-benzo[d][1,2,3]triazol-5-yl)oxy)phenyl)amino)pyrimido[5,4-d]pyrimidin-2-y1)piperidin-3-yl)acrylamide]
50 to 100 | 100 to 500 | C=CC(=O)N(C)[C@@H]1CCCN(c2ncc3ncnc(Nc4ccc(Oc5ccc6c(c5)nnn6C)c(C)c4)c3n2)C1 [Compound 129, (R)-N-methyl-N-(1-(8-((3-methyl-4-((1-methyl-1H-benzo[d][1,2,3]triazol-5-yl)oxy)phenyl)amino)pyrimido[5,4-d]pyrimidin-2-y1)piperidin-3-yl)acrylamide]
100 to 500 | 100 to 500 | C=CC(=O)N1CCN(c2ncc3ncnc(Nc4ccc(Oc5cc6nnn(C)c6cn5)c(C)c4)c3n2)CC1 [Compound 132, 1-(4-(8-((3-methyl-4-((3-methyl-3H-[1,2,3]triazolo[4,5-c]pyridin-6-yl)oxy)phenyl)amino)pyrimido[5,4-d]pyrimidin-2-yl)piperazin-1-yl)prop-2-en-1-one]
100 to 500 | 500 to 1000 | C=CC(=O)N1CCN(c2ncc3ncnc(Nc4ccc(Oc5ccc6c(c5)nnn6CC)c(C)c4)c3n2)CC1 [Compound 133, 1-(4-(8-((4-((1-ethyl-1H-benzo[d][1,2,3]triazol-5-yl)oxy)-3-methylphenyl)amino)pyrimido[5,4-d]pyrimidin-2-y1)piperazin-1-yl)prop-2-en-1-one]
50 to 100 | 100 to 500 | C=CC(=O)N1C2CCC1CN(c1ncc3ncnc(Nc4ccc(Oc5cnc6c(c5)ncn6C)c(C)c4)c3n1)C2 [Compound 134, 1-(3-(8-((3-methyl-4-((3-methyl-3H-imidazo[4,5-b]pyridin-6-yl)oxy)phenyl)amino)pyrimido[5,4-d]pyrimidin-2-yl)-3,8-diazabicyclo[3.2.1]octan-8-yl)prop-2-en-1-one]
50 to 100 | 100 to 500 | C=CC(=O)N1CCN(c2ncc3ncnc(Nc4ccc(Oc5cc6ncn(C)c6nc5C)c(C)c4)c3n2)CC1 [Compound 135, 1-(4-(8-((4-((3,5-dimethyl-3H-imidazo[4,5-b]pyridin-6-yl)oxy)-3-methylphenyl)amino)pyrimido[5,4-d]pyrimidin-2-yl)piperazin-1-yl)prop-2-en-1-one]
100 to 500 | 100 to 500 | C=CC(=O)N1CCN(c2ncc3ncnc(Nc4ccc(Oc5cc6nnn(C)c6c(F)c5C)c(C)c4)c3n2)CC1 [Compound 137, 1-(4-(8-((4-((7-fluoro-1,6-dimethyl-1H-benzo[d][1,2,3]triazol-5-yl)oxy)-3-methylphenyl)amino)pyrimido[5,4-d]pyrimidin-2-yl)piperazin-1-yl)prop-2-en-1-one]
100 to 500 | 100 to 500 | C=CC(=O)N1CCN(c2ncc3ncnc(Nc4c(OC)cc(Oc5ccc6c(c5)nnn6C)c(C)c4F)c3n2)CC1 [Compound 138, 1-(4-(8-((2-fluoro-6-methoxy-3-methyl-4-((1-methyl-1H-benzo[d][1,2,3]triazol-5-yl)oxy)phenyl)amino)pyrimido[5,4-d]pyrimidin-2-yl)piperazin-1-yl)prop-2-en-1-one]
100 to 500 | 100 to 500 | C=CC(=O)N1CCN(c2ncc3ncnc(Nc4ccc(Oc5ccn6nc(C)nc6c5)c(C)c4)c3n2)C[C@H]1C [Compound 139]
50 to 100 | 100 to 500 | C=CC(=O)N1[C@@H]2COC[C@H]1CN(c1ncc3ncnc(Nc4ccc(Oc5ccc6c(c5)nnn6C)c(C)c4)c3n1)C2 [Compound 140, 1-((1R,5S)-7-(8-((3-methyl-4-((1-methyl-1H-benzo[d][1,2,3]triazol-5-yl)oxy)phenyl)amino)pyrimido [5,4-d]pyrimidin-2-yl)-3-oxa-7,9-diazabicyclo[3.3.1]nonan-9-yl)prop-2-en-1-one]
100 to 500 | ≥ 1000 | C=CC(=O)N1CCCN(c2ncc3ncnc(Nc4ccc(Oc5ccc6c(c5)ncn6C)c(C)c4)c3n2)C[C@H]1C [Compound 143, (R)-1-(2-methyl-4-(8-((3-methyl-4-((1-methyl-1H-benzo[d]imidazol-5-yl)oxy)phenyl)amino)pyrimido[5,4-d]pyrimidin-2-yl)-1,4-diazepan-1-yl)prop-2-en-1-one]
50 to 100 | < 50 | C=CC(=O)N1CC2CC1CN(c1ncc3ncnc(Nc4ccc(Oc5cc(F)c6c(c5)ncn6C)c(C)c4F)c3n1)C2 (stereo not drawn) [Compound 147, 1-(3-(8-((2-fluoro-4-((7-fluoro-1-methyl-1H-benzo[d]imidazol-5-yl)oxy)-3-methylphenyl)amino)pyrimido[5,4-d]pyrimidin-2-y1)-3,6-diazabicyclo[3.2.1]octan-6-yl)prop-2-en-1-one]
50 to 100 | 100 to 500 | C=CC(=O)N1CCN(c2ncc3ncnc(Nc4ccc(Oc5ccc6c(c5)ncn6C(F)F)c(C)c4F)c3n2)C[C@H]1C [Compound 148, (R)-1-(4-(8-((4-((1-(difluoromethyl)-1H-benzo[d]imidazol-5-yl)oxy)-2-fluoro-3-methylphenyl)amino)pyrimido[5,4-d]pyrimidin-2-yl)-2-methylpiperazin-1-yl)prop-2-en-1-one]
100 to 500 | 500 to 1000 | C=CC(=O)N1CC[C@H]2CN(c3ncc4ncnc(Nc5ccc(Oc6ccc7c(c6)nnn7C)c(C)c5)c4n3)C[C@H]21 [Compound 149, 1-((3aS,6aS)-5-(8-((3-methyl-4-((1-methyl-1H-benzo[d][1,2,3]triazol-5-yl)oxy)phenyl)amino)pyrimido [5,4-d]pyrimidin-2-yl)hexahydropyrrolo[3,4-b]pyrrol-1(2H)-y1)prop-2-en-1-one]
100 to 500 | 500 to 1000 | C=CC(=O)N1CC[C@@H]2CN(c3ncc4ncnc(Nc5ccc(Oc6ccc7c(c6)nnn7C)c(C)c5)c4n3)C[C@@H]21 [Compound 150, 1-((3aR,6aR)-5-(8-((3-methyl-4-((1-methyl-1H-benzo[d][1,2,3]triazol-5-yl)oxy)phenyl)amino)pyrimido[5,4-d]pyrimidin-2-yl)hexahydropyrrolo[3,4-b]pyrrol-1(2H)-yl)prop-2-en-1-one]
100 to 500 | 100 to 500 | C=CC(=O)N1CCN(c2ncc3ncnc(Nc4cc(C)c(Oc5ccc6c(c5)nnn6C)c(Cl)c4)c3n2)C[C@H]1C [Compound 151, (R)-1-(4-(8-((3-chloro-5-methyl-4-((1-methyl-1H-benzo[d][1,2,3]triazol-5-yl)oxy)phenyl)amino)pyrimido[5,4-d]pyrimidin-2-yl)-2-methylpiperazin-1-yl)prop-2-en-1-one]
